Activity calls are given as the source filed them. The rule behind the calls is not given here.
Test system: CCRIS mutagenicity, Ames/micronucleus/aberration tests
Assay: CCRIS mutagenicity studies
[1] = Test System: AMES SALMONELLA TYPHIMURIUM, Strain/Indicator: TA100, Metabolic Activation: NONE, Method: PREINCUBATION
[2] = Test System: AMES SALMONELLA TYPHIMURIUM, Strain/Indicator: TA100, Metabolic Activation: RAT, LIVER, S-9, AROCLOR, Method: PREINCUBATION

For `CN(C)c1ccc(N=Nc2ccc(S(=O)(=O)O)cc2)cc1`, the mutagenic call (Test System: Ames Salmonella typhimurium, Strain/Indicator: TA102, Metabolic Activation: None, Method: Preincubation) was “inactive; negative”, the mutagenic call (Test System: Ames Salmonella typhimurium, Strain/Indicator: TA102, Metabolic Activation: Rat, Liver, S-9, Aroclor 1254, Method: Preincubation) was “active; positive. statistically significant at highest dose” and the mutagenic call (Test System: Ames Salmonella typhimurium, Strain/Indicator: TA104, Metabolic Activation: None, Method: Preincubation) was “inactive; negative”. The mutagenic call (Test System: Ames Salmonella typhimurium, Strain/Indicator: TA104, Metabolic Activation: Rat, Liver, S-9, Aroclor 1254, Method: Preincubation) was “active; positive. statistically significant at highest dose”.
`CC(C)(C)[N+](=O)[O-]` was tested, and the mutagenic call [1] was “inactive; negative”, the mutagenic call [2] was “inactive; negative” and the mutagenic call (Test System: AMES SALMONELLA TYPHIMURIUM, Strain/Indicator: TA102, Metabolic Activation: NONE, Method: PREINCUBATION) was “inactive; negative”. For the same compound, the mutagenic call (Test System: AMES SALMONELLA TYPHIMURIUM, Strain/Indicator: TA102, Metabolic Activation: RAT, LIVER, S-9, AROCLOR, Method: PREINCUBATION) was “inactive; negative”.
For `C=C(C)OC(C)=O`, the mutagenic call (Test System: AMES SALMONELLA TYPHIMURIUM, Strain/Indicator: TA98, Metabolic Activation: HAMSTER, LIVER, S-9, AROCLOR 1254, Method: STANDARD PLATE) was “inactive; negative”, the mutagenic call (Test System: AMES SALMONELLA TYPHIMURIUM, Strain/Indicator: TA98, Metabolic Activation: NONE, Method: STANDARD PLATE) was “inactive; negative” and the mutagenic call (Test System: AMES SALMONELLA TYPHIMURIUM, Strain/Indicator: TA98, Metabolic Activation: RAT, LIVER, S-9, AROCLOR 1254, Method: STANDARD PLATE) was “inactive; negative”. For the same compound, the mutagenic call (Test System: AMES SALMONELLA TYPHIMURIUM, Strain/Indicator: TA100, Metabolic Activation: HAMSTER, LIVER, S-9, AROCLOR 1254, Method: STANDARD PLATE) was “inactive; negative”, the mutagenic call (Test System: AMES SALMONELLA TYPHIMURIUM, Strain/Indicator: TA100, Metabolic Activation: NONE, Method: STANDARD PLATE) was “inactive; negative” and the mutagenic call (Test System: AMES SALMONELLA TYPHIMURIUM, Strain/Indicator: TA100, Metabolic Activation: RAT, LIVER, S-9, AROCLOR 1254, Method: STANDARD PLATE) was “inactive; negative”. The mutagenic call (Test System: AMES SALMONELLA TYPHIMURIUM, Strain/Indicator: TA1535, Metabolic Activation: HAMSTER, LIVER, S-9, AROCLOR 1254, Method: STANDARD PLATE) was “inactive; negative”, the mutagenic call (Test System: AMES SALMONELLA TYPHIMURIUM, Strain/Indicator: TA1535, Metabolic Activation: NONE, Method: STANDARD PLATE) was “inactive; negative” and the mutagenic call (Test System: AMES SALMONELLA TYPHIMURIUM, Strain/Indicator: TA1535, Metabolic Activation: RAT, LIVER, S-9, AROCLOR 1254, Method: STANDARD PLATE) was “inactive; negative”. The mutagenic call (Test System: AMES SALMONELLA TYPHIMURIUM, Strain/Indicator: TA1537, Metabolic Activation: HAMSTER, LIVER, S-9, AROCLOR 1254, Method: STANDARD PLATE) was “inactive; negative”, the mutagenic call (Test System: AMES SALMONELLA TYPHIMURIUM, Strain/Indicator: TA1537, Metabolic Activation: NONE, Method: STANDARD PLATE) was “inactive; negative” and the mutagenic call (Test System: AMES SALMONELLA TYPHIMURIUM, Strain/Indicator: TA1537, Metabolic Activation: RAT, LIVER, S-9, AROCLOR 1254, Method: STANDARD PLATE) was “inactive; negative”. For the same compound, the mutagenic call (Test System: AMES SALMONELLA TYPHIMURIUM, Strain/Indicator: TA1538, Metabolic Activation: HAMSTER, LIVER, S-9, AROCLOR 1254, Method: STANDARD PLATE) was “inactive; negative”, the mutagenic call (Test System: AMES SALMONELLA TYPHIMURIUM, Strain/Indicator: TA1538, Metabolic Activation: NONE, Method: STANDARD PLATE) was “inactive; negative” and the mutagenic call (Test System: AMES SALMONELLA TYPHIMURIUM, Strain/Indicator: TA1538, Metabolic Activation: RAT, LIVER, S-9, AROCLOR 1254, Method: STANDARD PLATE) was “inactive; negative”. For the same compound, the mutagenic call (Test System: Mouse lymphoma, Strain/Indicator: L5178Y (tk+/tk-), Metabolic Activation: None, Method: Suspension/plate) was “active; inconclusive (previously evaluated positive)” and the mutagenic call (Test System: Mouse lymphoma, Strain/Indicator: L5178Y (tk+/tk-), Metabolic Activation: Rat, liver, S-9, Aroclor 1254, Method: Suspension/plate) was “inactive; negative”.
`COC(=O)c1oc(NO)c(-c2ccccc2)c1-c1ccccc1` was tested, and the mutagenic call (Test System: AMES SALMONELLA TYPHIMURIUM, Strain/Indicator: TA98, Metabolic Activation: NONE, Method: PREINCUBATION) was “inactive; negative”, the mutagenic call (Test System: AMES SALMONELLA TYPHIMURIUM, Strain/Indicator: TA98, Metabolic Activation: RAT, LIVER, S-9, AROCLOR, Method: PREINCUBATION) was “inactive; negative” and the mutagenic call [1] was “inactive; negative”. The mutagenic call [2] was “inactive; negative”.

Source: PubChem BioAssay AID1259407 (Chemical Carcinogenesis Research Information System (CCRIS), 2018)
